Data: BindingDB's records for doi:10.1021/jm050292k (Maxim Pharmaceuticals, 2005)

Key:
[1] = Caspase-3 activation activity tested in DLD1 colon cells done for 24 or 48 hr at 37 degree C
[2] = Caspase-3 activation activity tested in T47D breast cells done for 24 or 48 hr at 37 degree C
[3] = Caspase-3 activation activity tested in H1299 lung cancer cells done for 24 or 48 hr at 37 degree C
[4] = Caspase-3 activation activity tested in […] cancer cells done for 24 or 48 hr at 37 degree C
[5] = Caspase-3 activation activity tested in HT-29 cancer cells done for 24 or 48 hr at 37 degree C
[6] = Caspase-3 activation activity tested in LnCap cancer cells done for 24 or 48 hr at 37 degree C
[7] = Caspase-3 activation activity tested in ZR-75-1 cancer cells done for 24 or 48 hr at 37 degree C
[8] = Caspase activation activity of compound in cell line H-1299 nonsmall-cell lung cancer cells

Row | Structure (SMILES) | EC50 [1] [nM] | EC50 [2] [nM] | EC50 [3] [nM] | EC50 [4] [nM] | EC50 [5] [nM] | EC50 [6] [nM] | EC50 [7] [nM] | EC50 [8] [nM]
1 | Clc1ccc(-c2noc(-c3occc3Br)n2)nc1 [2-[5-(3-Bromo-furan-2-yl)-[1,2,4]oxadiazol-3-yl]-5-chloro-pyridine] | 840 | 1610 | > 10000 |  |  |  |  | 
2 | FC(F)(F)c1ccc(-c2noc(-c3sccc3Cl)n2)nc1 [2-[5-(3-Chloro-thiophen-2-yl)-[1,2,4]oxadiazol-3-yl]-5-trifluoromethyl-pyridine] | 410 | 1440 | > 10000 |  |  |  |  | 
3 | Clc1ccc(-c2noc(-c3sccc3Cl)n2)cc1 [3-(4-Chloro-phenyl)-5-(3-chloro-thiophen-2-yl)-[1,2,4]oxadiazole] | 790 | 1770 | > 40000 |  |  |  |  | 
4 | CCOc1ccsc1-c1nc(-c2ccc(Cl)cc2)no1 [3-(4-Chloro-phenyl)-5-(3-ethoxy-thiophen-2-yl)-[1,2,4]oxadiazole] | > 10000 | > 40000 | > 40000 |  |  |  |  | 
5 | Clc1ccc(-c2noc(-c3ccco3)n2)cc1 [3-(4-Chloro-phenyl)-5-furan-2-yl-[1,2,4]oxadiazole] | > 10000 | 17400 | > 40000 |  |  |  |  | 
6 | Clc1ccc(-c2noc(-c3cccs3)n2)cc1 [3-(4-Chloro-phenyl)-5-thiophen-2-yl-[1,2,4]oxadiazole] | > 10000 | > 40000 | > 40000 |  |  |  |  | 
7 | Clc1ccc(-c2noc(-c3ccccc3Cl)n2)cc1 [5-(2-Chloro-phenyl)-3-(4-chloro-phenyl)-[1,2,4]oxadiazole] |  | > 40000 | > 40000 |  |  |  |  | 
8 | FC(F)(F)c1ccc(-c2noc(-c3ccccc3Cl)n2)cc1 [5-(2-Chloro-phenyl)-3-(4-trifluoromethyl-phenyl)-[1,2,4]oxadiazole] |  | > 40000 | > 40000 |  |  |  |  | 
9 | FC(F)(F)c1ccc(-c2noc(-c3occc3Br)n2)cc1 [5-(3-Bromo-furan-2-yl)-3-(4-trifluoromethyl-phenyl)-[1,2,4]oxadiazole] | 1070 | 2010 | > 10000 |  |  |  |  | 
10 | Clc1ccc(-c2noc(-c3sccc3Br)n2)cc1 [5-(3-Bromo-thiophen-2-yl)-3-(4-chloro-phenyl)-[1,2,4]oxadiazole] | 1320 | 3320 | > 10000 |  |  |  |  | 
11 | Cc1csc(-c2nc(-c3ccc(Cl)cc3)no2)c1Cl [5-(3-Chloro-4-methyl-thiophen-2-yl)-3-(4-chloro-phenyl)-[1,2,4]oxadiazole] | > 10000 | > 40000 | > 40000 |  |  |  |  | 
12 | Clc1ccc(-c2noc(-c3occc3Cl)n2)cc1 [5-(3-Chloro-furan-2-yl)-3-(4-chloro-phenyl)-[1,2,4]oxadiazole] | 1490 | 1740 | > 10000 |  |  |  |  | 
13 | O=[N+]([O-])c1ccc(-c2noc(-c3occc3Cl)n2)cc1 [5-(3-Chloro-furan-2-yl)-3-(4-nitro-phenyl)-[1,2,4]oxadiazole] |  | 1970 | > 40000 |  |  |  |  | 
14 | COc1ccc(-c2noc(-c3sccc3Cl)n2)cc1 [5-(3-Chloro-thiophen-2-yl)-3-(4-methoxy-phenyl)-[1,2,4]oxadiazole] | 1450 | 4170 | > 10000 |  |  |  |  | 
15 | Cc1ccc(-c2noc(-c3sccc3Cl)n2)cc1 [5-(3-Chloro-thiophen-2-yl)-3-p-tolyl-[1,2,4]oxadiazole] | 1420 | 3660 | > 10000 |  |  |  |  | 
16 | Clc1ccsc1-c1nc(-c2ccccc2)no1 [5-(3-Chloro-thiophen-2-yl)-3-phenyl-[1,2,4]oxadiazole] | 760 | 2820 | > 40000 |  |  |  |  | 
17 | Clc1ccc(-c2noc(-c3sccc3Cl)n2)cc1Cl [5-(3-chlorothiophen-2-yl)-3-(3,4-dichlorophenyl)-1,2,4-oxadiazole] | 370 | 1410 | > 10000 |  |  |  |  | 
18 | Clc1ccc(-c2noc(-c3sccc3Cl)n2)nc1 [5-Chloro-2-[5-(3-chloro-thiophen-2-yl)-[1,2,4]oxadiazol-3-yl]-pyridine] | 390 | 1590 | > 40000 |  |  |  |  | 
19 | Cc1ccc(-c2noc(-c3cccs3)n2)cc1 [5-Thiophen-2-yl-3-p-tolyl-[1,2,4]oxadiazole] | > 10000 | > 40000 | > 40000 |  |  |  |  | 
20 | CN(C)c1ccc(-c2noc(-c3sccc3Cl)n2)cc1 [{4-[5-(3-Chloro-thiophen-2-yl)-[1,2,4]oxadiazol-3-yl]-phenyl}-dimethyl-amine] | > 10000 | > 40000 | > 40000 |  |  |  |  | 

Now those with a lower EC50 [2], led by results:

Row | EC50 [1] [nM] | EC50 [2] [nM] | EC50 [3] [nM] | EC50 [4] [nM] | EC50 [5] [nM] | EC50 [6] [nM] | EC50 [7] [nM] | EC50 [8] [nM] | Structure (SMILES)
21 | 290 | 750 | > 10000 |  |  |  |  |  | Clc1ccc(-c2noc(-c3sccc3Cl)n2)cn1 [2-Chloro-5-[5-(3-chloro-thiophen-2-yl)-[1,2,4]oxadiazol-3-yl]-pyridine]
22 | 700 | 610 | > 10000 |  |  |  |  |  | FC(F)(F)c1ccc(-c2noc(-c3occc3Br)n2)nc1 [2-[5-(3-Bromo-furan-2-yl)-[1,2,4]oxadiazol-3-yl]-5-trifluoromethyl-pyridine]
23 | 380 | 910 | > 40000 |  |  |  |  |  | Cc1cc(Cl)ccc1-c1noc(-c2sccc2Cl)n1 [3-(4-chloro-2-methylphenyl)-5-(3-chlorothiophen-2-yl)-1,2,4-oxadiazole]
24 | 830 | 1080 | > 10000 |  |  |  |  |  | Clc1ccc(-c2noc(-c3occc3Br)n2)cc1 [5-(3-Bromo-furan-2-yl)-3-(4-chloro-phenyl)-[1,2,4]oxadiazole]
25 | 480 | 520 | > 10000 |  |  |  |  |  | FC(F)(F)c1ccc(-c2noc(-c3occc3Cl)n2)cc1 [5-(3-Chloro-furan-2-yl)-3-(4-trifluoromethyl-phenyl)-[1,2,4]oxadiazole]
26 | 280 | 900 | > 10000 |  |  |  |  |  | FC(F)(F)c1cccc(-c2noc(-c3sccc3Cl)n2)c1 [5-(3-Chloro-thiophen-2-yl)-3-(3-trifluoromethyl-phenyl)-[1,2,4]oxadiazole]
27 | 560 | 930 | > 10000 |  |  |  |  |  | FC(F)(F)c1cc(-c2noc(-c3sccc3Cl)n2)ccc1Cl [5-(3-Chloro-thiophen-2-yl)-3-(4-chloro-3-trifluoromethyl-phenyl)-[1,2,4]oxadiazole]
28 | 430 | 890 | > 10000 |  |  |  |  |  | FC(F)(F)Oc1ccc(-c2noc(-c3sccc3Cl)n2)cc1 [5-(3-Chloro-thiophen-2-yl)-3-(4-trifluoromethoxy-phenyl)-[1,2,4]oxadiazole]
29 | 440 | 1210 | > 40000 | > 10000 | 760 | > 10000 | 3340 |  | FC(F)(F)c1ccc(-c2noc(-c3sccc3Cl)n2)cc1 [5-(3-Chloro-thiophen-2-yl)-3-(4-trifluoromethyl-phenyl)-[1,2,4]oxadiazole]
30 | 580 | 1110 |  |  |  |  |  | > 10000 | Clc1ccc(-c2noc(-c3occc3Cl)n2)nc1 [5-Chloro-2-[5-(3-chloro-furan-2-yl)-[1,2,4]oxadiazol-3-yl]-pyridine]
31 | 240 | 920 | > 10000 |  |  |  |  |  | FC(F)(F)c1ccc(-c2noc(-c3sccc3Cl)n2)cn1 [5-[5-(3-Chloro-thiophen-2-yl)-[1,2,4]oxadiazol-3-yl]-2-trifluoromethyl-pyridine]
